# Calls of active or inactive are those of the source. No cut-off for these calls is given here.
# What was measured:
# [1] = target: C-X-C chemokine receptor type 4 (Homo sapiens) (UniProt P61073); experiment: Competitive binding affinity at CXCR4 in human MDA-MB-231 cells preincubated for 10 mins followed by biotinylated TN14003 addition further incubated for 30 mins by fluorescence microscopy; format: cell-based
# [2] = target: C-X-C chemokine receptor type 4 (Homo sapiens) (UniProt P61073); experiment: Inhibition of CXCR4-mediated chemotaxis in human MDA-MB-231 cells assessed as reduction in CXCL12alpha-induced cell invasion after 22 hrs by hematoxylin/eosin dye-based matrigel assay relative to control; set-up: concentration or dose not given beside the values; details: concentration not given here
# HUVEC = experiment: Antiangiogenic activity in HUVEC assessed as inhibition of tube formation at 10 uM incubated for 4 hrs by matrigel assay; format: functional, cell-based; details: Homo sapiens
# MDA-MB-231 [3] = experiment: Inhibition of fibronectin-induced cell adhesion in human MDA-MB-231 cells at 1 to 10 uM incubated for 6 hrs by inverted microscopy; format: functional, cell-based
# MDA-MB-231 [4] = experiment: Inhibition of cell migration in human MDA-MB-231 cells at 10 uM incubated for 24 hrs by inverted microscopy; format: functional, cell-based
# MDA-MB-231 [5] = experiment: Inhibition of cell migration in human MDA-MB-231 cells incubated for 24 hrs by inverted microscopy; format: functional, cell-based
# [6] = Toxicity in BALB/c mouse xenografted with human MDA-MB-231 cells assessed as effect on body weight at 20 mg/kg, po administered twice a day for 2 weeks; format: organism-based; details: in vivo, 336 h
# MDA-MB-231 [7] = experiment: Inhibition of metastasis in human MDA-MB-231 cells assessed as decrease in p-4E-BP1 expression at 10 uM incubated for 24 hrs by Western blot analysis; format: functional, cell-based
# MDA-MB-231 [8] = experiment: Antimetastatic activity against human MDA-MB-231 cells xenografted in BALB/c mouse assessed as reduction in lung metastatic nodules at 20 mg/kg, ip administered twice a day for 2 weeks and measured on day 14; format: functional, organism-based
# MDA-MB-231 [9] = experiment: Inhibition of metastasis in human MDA-MB-231 cells assessed as decrease in P70S6K expression at 10 uM incubated for 24 hrs by Western blot analysis; format: functional, cell-based
# MDA-MB-231 [10] = experiment: Inhibition of metastasis in human MDA-MB-231 cells assessed as decrease in p-mTOR expression at 10 uM incubated for 24 hrs by Western blot analysis; format: functional, cell-based
# MDA-MB-231 [11] = experiment: Antimetastatic activity against human MDA-MB-231 cells xenografted in BALB/c mouse assessed as reduction in lung metastasis at 20 mg/kg, ip administered twice a day for 2 weeks and measured on day 14 relative to control; format: functional; details: MDA-MB-231, ip, 336 h
# [12] = target: C-X-C chemokine receptor type 4 (Homo sapiens) (UniProt P61073); experiment: Inhibition of CXCR4-mediated chemotaxis in human MDA-MB-231 cells assessed as reduction in CXCL12alpha-induced cell invasion after 22 hrs by hematoxylin/eosin dye-based matrigel assay
# Chain of C-X-C chemokine receptor type 4 (Homo sapiens) (P61073 whole entry): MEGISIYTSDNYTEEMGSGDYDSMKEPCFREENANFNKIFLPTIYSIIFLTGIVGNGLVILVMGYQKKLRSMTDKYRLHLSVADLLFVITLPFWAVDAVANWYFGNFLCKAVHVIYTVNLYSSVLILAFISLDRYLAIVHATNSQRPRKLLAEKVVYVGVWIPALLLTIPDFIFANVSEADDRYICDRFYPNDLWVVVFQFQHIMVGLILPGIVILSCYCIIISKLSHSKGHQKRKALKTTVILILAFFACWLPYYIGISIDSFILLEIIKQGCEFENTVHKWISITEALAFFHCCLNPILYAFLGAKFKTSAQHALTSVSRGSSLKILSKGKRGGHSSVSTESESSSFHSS
EC [1],SMILES,also measured
1000 nM,COc1ccccc1C(=O)NCc1ccc(CNS(=O)(=O)c2ccccc2C)cc1,–
1000 nM,COc1ccccc1C(=O)NCc1ccc(CNS(=O)(=O)c2cccc(Cl)c2)cc1,–
1000 nM,COc1ccccc1C(=O)NCc1ccc(CNS(=O)(=O)c2cccc(C)c2)cc1,–
1000 nM,COc1ccccc1C(=O)NCc1ccc(CNS(=O)(=O)c2ccc(Cl)cc2)cc1,–
100 nM,O=C(NCc1ccc(CNS(=O)(=O)c2ccccc2Cl)cc1)c1cccnc1,inhibition [2]: 96%; inhibition (HUVEC): Active; inhibition (MDA-MB-231 [3]): Active; inhibition (MDA-MB-231 [4]): Active
1000 nM,Cc1ccccc1C(=O)NCc1ccc(CNS(=O)(=O)c2ccccc2F)cc1,–
100 nM,COc1ccccc1C(=O)NCc1ccc(CNS(=O)(=O)c2ccc(F)cc2)cc1,–
100 nM,Cc1ccccc1C(=O)NCc1ccc(CNS(=O)(=O)c2cccc(Cl)c2)cc1,inhibition [2]: 99%; inhibition (MDA-MB-231 [3]): Active; inhibition (MDA-MB-231 [4]): Active
100 nM,Cc1ccccc1C(=O)NCc1ccc(CNS(=O)(=O)c2ccc([N+](=O)[O-])cc2)cc1,–
10 nM,Cc1cccc(S(=O)(=O)NCc2ccc(CNC(=O)c3cccnc3)cc2)c1,–
100 nM,COc1ccccc1C(=O)NCc1ccc(CNS(=O)(=O)c2ccccc2Cl)cc1,inhibition [2]: 99%; inhibition (MDA-MB-231 [3]): Active; inhibition (MDA-MB-231 [4]): Active
100 nM,O=C(NCc1ccc(CNS(=O)(=O)c2cccc(Cl)c2)cc1)c1cccnc1,–
100 nM,O=C(NCc1ccc(CNS(=O)(=O)c2ccccc2F)cc1)c1cccnc1,–
1000 nM,Cc1ccccc1C(=O)NCc1ccc(CNS(=O)(=O)c2ccccc2Cl)cc1,–
100 nM,Cc1ccccc1C(=O)NCc1ccc(CNS(=O)(=O)c2cccc(F)c2)cc1,–
100 nM,O=C(NCc1ccc(CNS(=O)(=O)c2ccc(F)cc2)cc1)c1cccnc1,inhibition [2]: 92%; inhibition (HUVEC): Active; inhibition (MDA-MB-231 [5]): Dose-dependent effect; inhibition (MDA-MB-231 [3]): Active; inhibition (MDA-MB-231 [4]): Active; Activity [6]: Non-Toxic; inhibition (MDA-MB-231 [7]): Active; Activity (MDA-MB-231 [8]): Active; inhibition (MDA-MB-231 [9]): Active; inhibition (MDA-MB-231 [10]): Active; inhibition in vivo at 20 mg/kg (MDA-MB-231 [11]): 43%
> 1000 nM,COc1ccccc1C(=O)NCc1ccc(CNS(=O)(=O)c2cccc3ccccc23)cc1,–
1000 nM,O=C(NCc1ccc(CNS(=O)(=O)c2cccc3ccccc23)cc1)c1cccnc1,–
100 nM,O=C(NCc1ccc(CNS(=O)(=O)c2ccc([N+](=O)[O-])cc2)cc1)c1cccnc1,inhibition [12]: inactive
10 nM,Cc1ccccc1C(=O)NCc1ccc(CNS(=O)(=O)c2ccc(F)cc2)cc1,–
1000 nM,O=C(NCc1ccc(CNS(=O)(=O)c2cccc(F)c2)cc1)c1cccnc1,–
10 nM,Cc1ccccc1C(=O)NCc1ccc(CNS(=O)(=O)c2ccccc2C)cc1,inhibition [2]: 99%; inhibition (HUVEC): Active; inhibition (MDA-MB-231 [3]): Active; inhibition (MDA-MB-231 [4]): Active
1 nM,Cc1ccccc1C(=O)NCc1ccc(CNS(=O)(=O)c2ccc(Cl)cc2)cc1,–
1 nM,COc1ccccc1C(=O)NCc1ccc(CNS(=O)(=O)c2ccccc2F)cc1,inhibition [12]: inactive
1000 nM,O=C(NCc1ccc(CNS(=O)(=O)c2ccc(Cl)cc2)cc1)c1cccnc1,–
100 nM,COc1ccccc1C(=O)NCc1ccc(CNS(=O)(=O)c2ccc([N+](=O)[O-])cc2)cc1,–
100 nM,Cc1ccccc1C(=O)NCc1ccc(CNS(=O)(=O)c2cccc3ccccc23)cc1,–
1000 nM,COc1ccccc1C(=O)NCc1ccc(CNS(=O)(=O)c2cccc(F)c2)cc1,–
1000 nM,Cc1ccccc1S(=O)(=O)NCc1ccc(CNC(=O)c2cccnc2)cc1,–
1000 nM,Cc1cccc(S(=O)(=O)NCc2ccc(CNC(=O)c3ccccc3C)cc2)c1,–
